From patent US6117840A, “CS-1 peptidomimetics, compositions and methods of using the same” (Cytel Corporation, priority 1997, dated 2000)
Read-outs that look alike come from different tables or passages of the source. Square brackets hold non-standard residues; d marks the D form. Peptide text beside a SMILES is read from it. * marks the point of attachment. PhAc = O=C(Cc1ccccc1)*

Assays:
[1] = target: T1, VLA-4 (Homo sapiens, UniProt P05556+P13612); type: cell-based; conditions: for RELATIVE POTENCY (inhibition of VLA-4 binding CS-1): relative to standard peptide SEQ ID NO:3 (=1), normalized IC50, about one-tenth or less of SEQ ID NO:3 assigned zero
T1 construct: host or cells: Jurkat (human T lymphoblastic line)
Method in brief: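 ⁵¹Cr-labelled Jurkat cells were preincubated with peptide for 30 min at ~22 °C, then allowed to adhere 30 min at 37 °C to wells coated with CS1 peptide or CS1-OVA. After washing, bound cells were SDS-lysed and counted. IC50 is the concentration halving cell binding.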

[2] = test system: SJL/J mice; experiment: Experimental autoimmune encephalomyelitis in mice; type: in vivo; conditions: 1 mg/mouse i.p. at days 8 and 9; versus scrambled control peptide
Method: EAE was induced in female SJL/J mice (8 to 14 weeks old) by immunization on day zero with 50 μg of a peptide corresponding to positions 139-151 of PLP emulsified in a 1:1 mixture of PBS and complete Freund's adjuvant (CFA). Each mouse was injected with 0.2 ml of the adjuvant emulsion subcutaneously (s.c.) at two sites in the hind flank. All mice received 10^7 killed Bordetella pertussis units in 100 μl were injected intravenously 24 to 72 hours later.
Mice were observed daily, beginning at day 8 for clinical signs of EAE, and disease was scored on a scale of 0-5 as: 0=no disease; 1=floppy tail; 2=moderate hind limb weakness; 3=paraparesis; 4=paraplegis with moderate forelimb weakness; 5=qualdriplegis or premoribund state.
The inhibitor peptide N--phenylacetyl--Leu--Asp--Phe--D--Pro--NH2 was administered intraperitoneally at 1 mg/mouse in 0.2 ml of incomplete Freund's adjuvant at days 8 and 9. A peptide having a scrambled sequence [N--phenylacetyl--Asp--Leu--Phe--D--Pro--NH2 ] was similarly administered to serve as a control.
Summed or averaged scores for clinical signs were plotted vs. time. The area under the resulting curves was calculated between day 8 and day 35 to calculate percentage inhibition of EAE by an inhibitor peptide. The percent inhibition was calculated as follows: [formula]

[3] = test system: asthmatic sheep; experiment: Treatment of asthmatic sheep (Ascaris suum antigen); type: in vivo; conditions: for PC400, carbacol dosage to increase SRL 4-fold, 24 hours after challenge: pre-challenge values about 20-23 BU
Method: Six asthmatic sheep were treated in a double blind cross-over study by Dr. William M. Abraham of the Department of Research, Mount Sinai Medical Center, 4300 Alton Road, Miami Beach, Fla. 33140. […] This study was carried out generally as described in Abraham et al., J. Clin. Invest., 93:776-787 (1994).
The inhibitor peptide used here was N--phenylacetyl--Leu--Asp--Phe--D--Pro--NH2, with a control peptide that comprised the previously described peptide having the same residues in a scrambled sequence. The vehicle for the nebulized peptides was phosphate-buffered saline. The peptides were administered at a dose of 1 mg/kg each, twice a day for three days prior to challenge, as well as 0.5 hours prior to and four hours post challenge on day 4. Because this was a crossover study, each animal received one or the other treatment, followed by a rest and then the other treatment. Each animal therefore served as its own control.

T1 sequence (P13612 34-1032): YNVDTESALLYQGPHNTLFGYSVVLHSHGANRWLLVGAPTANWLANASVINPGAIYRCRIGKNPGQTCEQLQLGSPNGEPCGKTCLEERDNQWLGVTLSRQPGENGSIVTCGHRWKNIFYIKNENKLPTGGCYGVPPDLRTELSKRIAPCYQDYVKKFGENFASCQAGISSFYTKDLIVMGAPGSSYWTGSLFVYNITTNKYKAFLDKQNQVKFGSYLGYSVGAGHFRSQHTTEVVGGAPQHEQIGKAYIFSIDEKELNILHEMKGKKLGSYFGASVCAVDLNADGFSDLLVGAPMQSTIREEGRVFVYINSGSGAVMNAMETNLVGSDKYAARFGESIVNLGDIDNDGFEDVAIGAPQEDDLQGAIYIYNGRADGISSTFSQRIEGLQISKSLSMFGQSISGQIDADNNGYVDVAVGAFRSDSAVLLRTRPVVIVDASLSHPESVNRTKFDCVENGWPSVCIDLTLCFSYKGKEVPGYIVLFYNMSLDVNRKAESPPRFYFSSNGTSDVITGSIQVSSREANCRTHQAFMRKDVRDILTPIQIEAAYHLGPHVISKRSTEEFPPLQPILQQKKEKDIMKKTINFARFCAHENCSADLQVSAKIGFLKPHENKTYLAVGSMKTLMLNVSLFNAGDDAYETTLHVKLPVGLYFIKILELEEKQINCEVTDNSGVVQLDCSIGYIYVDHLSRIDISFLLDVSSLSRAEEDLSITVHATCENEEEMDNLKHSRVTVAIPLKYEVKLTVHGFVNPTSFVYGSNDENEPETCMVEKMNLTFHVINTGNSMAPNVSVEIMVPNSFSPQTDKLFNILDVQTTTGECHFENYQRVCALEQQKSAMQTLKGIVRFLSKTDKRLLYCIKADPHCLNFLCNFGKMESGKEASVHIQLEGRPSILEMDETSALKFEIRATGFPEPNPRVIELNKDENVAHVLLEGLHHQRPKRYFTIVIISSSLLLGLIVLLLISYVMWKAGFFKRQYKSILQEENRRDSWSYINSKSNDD
T1 sequence (P05556 21-798): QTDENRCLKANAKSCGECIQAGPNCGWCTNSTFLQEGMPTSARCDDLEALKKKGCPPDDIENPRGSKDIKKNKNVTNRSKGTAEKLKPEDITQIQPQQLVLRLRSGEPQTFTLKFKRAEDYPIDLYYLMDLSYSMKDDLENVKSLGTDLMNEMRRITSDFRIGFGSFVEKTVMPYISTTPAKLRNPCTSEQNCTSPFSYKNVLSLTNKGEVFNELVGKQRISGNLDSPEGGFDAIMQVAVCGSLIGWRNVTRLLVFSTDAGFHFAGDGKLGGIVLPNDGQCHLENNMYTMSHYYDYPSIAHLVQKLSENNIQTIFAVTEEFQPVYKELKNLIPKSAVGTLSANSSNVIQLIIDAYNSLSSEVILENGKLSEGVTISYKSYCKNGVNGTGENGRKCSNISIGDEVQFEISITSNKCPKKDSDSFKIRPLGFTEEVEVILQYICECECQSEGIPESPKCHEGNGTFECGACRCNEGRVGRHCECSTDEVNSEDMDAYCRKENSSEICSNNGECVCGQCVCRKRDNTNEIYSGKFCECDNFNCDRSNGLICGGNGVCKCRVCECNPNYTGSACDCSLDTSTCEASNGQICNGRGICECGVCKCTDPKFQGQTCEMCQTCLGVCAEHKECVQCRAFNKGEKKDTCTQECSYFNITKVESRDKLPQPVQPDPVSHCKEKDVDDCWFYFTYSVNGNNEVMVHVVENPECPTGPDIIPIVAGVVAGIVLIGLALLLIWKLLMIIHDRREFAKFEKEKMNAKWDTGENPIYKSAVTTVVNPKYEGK

| SMILES | VLA-4 binding inhibition, times better than the standard 10-mer peptide of SEQ ID NO:3 [1] | RELATIVE POTENCY (inhibition of VLA-4 binding CS-1) [1] | clinical signs of EAE [2] | change in specific lung resistance (SRL) after challenge (FIG. 7) ([3]; 1 mg/kg nebulized twice a day, versus control peptide) | PC400, carbacol dosage to increase SRL 4-fold, 24 hours after challenge [3] | binding inhibition (in words) ([1]; compared to standard 10-mer / B12) | RELATIVE POTENCY (inhibition of VLA-4 binding CS-1) ([1]; listed as N--phenylacetyl--Asp--Leu--Phe--D--Pro--NH2) |
| --- | --- | --- | --- | --- | --- | --- | --- |
| CC(C)C[C@H](NC(=O)Cc1ccccc1)C(=O)N[C@@H](CC(=O)O)C(=O)N[C@@H](Cc1ccccc1)C(=O)N1CCC[C@@H]1C(N)=O [X L D F p phenylacetyl amide, N--phenylacetyl--Leu--Asp--Phe--D--Pro--NH2] (PhAc-LDF[dP]-NH2) | about 312 times | 313 | marked improvement in clinical signs | less of a change from baseline specific lung resistance | about 27 BU | – | – |
| CC(C)C[C@H](NC(=O)[C@H](CC(=O)O)NC(=O)Cc1ccccc1)C(=O)N[C@@H](Cc1ccccc1)C(=O)N1CCC[C@@H]1C(N)=O [X L D F p phenylacetyl amide scrambled, N--phenylacetyl--Asp--Leu--Phe--D--Pro--NH2, reference compound] (PhAc-DLF[dP]-NH2) | – | 0 | – | – | about 12 BU | no inhibition of VLA-4 | < 1 |
